From paper PMC3421038 (The Pediatric infectious disease journal, 2012)
Like-named read-outs stand apart in the source and are kept apart here.

Legend:
[1] = human, in vivo, cited from earlier work
[2] = human, in vivo, iv, 6 mg/kg
[3] = in vivo
[4] = test system: hepatic cytochrome P450 enzyme system; conditions: cited from earlier work
[5] = human, in vivo; cited from earlier work
[6] = in vivo, cited from earlier work

CCCCCCCCCC(=O)N[C@@H](Cc1c[nH]c2ccccc12)C(=O)N[C@H](CC(N)=O)C(=O)N[C@@H](CC(=O)O)C(=O)N[C@@H]1C(=O)NCC(=O)N[C@@H](CCCN)C(=O)N[C@@H](CC(=O)O)C(=O)N[C@H](C)C(=O)N[C@@H](CC(=O)O)C(=O)NCC(=O)N[C@H](CO)C(=O)N[C@@H]([C@H](C)CC(=O)O)C(=O)N[C@@H](CC(=O)c2ccccc2N)C(=O)O[C@@H]1C [daptomycin]
mean exposure (AUCinf) ([1]; 8 mg/kg): 429 µg·h/mL | mean exposure (AUCinf) ([1]; 10 mg/kg): 550 µg·h/mL | AUC(0-t) [2]: 262 µg·h/mL | Cmax [2]: 25500 ng/mL | clearance [2]: 0.35 mL/min/kg | half-life [2]: 6.2 h | CPK value after the dose of daptomycin [3]: 86 IU/L | CPK value before the dose of daptomycin [3]: 132 IU/L | calcium level after the daptomycin dose [3]: 9.7 | calcium level before the daptomycin dose [3]: 9.3 | respiratory rate, temperature, heart rate, or mean blood pressure during the daptomycin infusion ([3]; 6 mg/kg): No significant changes | adverse events classified as serious adverse events ([3]; iv, 6 mg/kg): Five | adverse events related to study drug ([3]; iv, 6 mg/kg): None | adverse events reported (number of events) ([3]; iv, 6 mg/kg): 34 | subjects with adverse events ([3]; iv, 6 mg/kg): 55% | effect on the hepatic cytochrome P450 enzyme system [4]: does not have an effect | patients with cellulitis as serious adverse event [5]: 1.3% | patients with elevation of CPK concentrations [5]: 2.1% | renal toxicity [5]: does not cause renal toxicity | mean exposure (AUCinf) ([6]; 4 mg/kg): 417 µg·h/mL | administered dose excreted within 24 hours as intact drug [6]: 50% | kinetics (dose linearity) [6]: linear kinetics
